Assay results as given in patent US9095567B2, “Vaccine formulations” (priority 2010, dated 2015).

Key:
Assay in all cases: Preservative effectiveness test, single challenge
Format in all cases: cell-based
[1] = tested on: Candida albicans (ATCC#10231); conditions: Prev(e)nar 13 formulation, single challenge, 20 to 25° C.
Source text: (§1) To test for preservative effectiveness, aliquots of vaccine were inoculated with the following organisms:
(§2) Thirty milliliters (ml) of each vaccine formulation with and without Thimerosal or 2-PE at indicated concentrations or saline containing Thimerosal at 0.02% were inoculated in triplicates with a suspension of each test organism to achieve an inoculum density of approximately 10^5 to 10^6 CFU/ml at time 0 (CFU=colony forming units). […] Samples were mixed to ensure even distribution of challenged organisms. Another 30 ml of vaccine in triplicate (with and without preservative) were used as a negative control and spiked with the culture media alone to evaluate the inherent contamination that might be present in the sample or media. Each of the three series of vaccines, and positive and negative controls, was then separately incubated at 20 to 25° C. Aliquots (1 ml) of the challenged samples and controls (or their appropriate serial ten fold dilutions) were enumerated by plate count in duplicates at time 0 and at intervals of 6 hours, 24 hours, 7 days, 14 days and 28 days post-inoculation.
(§3) USP 29 NF 24 Supplement 2 (USP) requires that, after an inoculation of bacterial micro-organism(s), there is at least 1.0 log reduction from the initial calculated count (i.e., at time of inoculation) at 7 days, at least 3.0 log reduction at 14 days from the previous value measured and no increase at 28 days from the previous measured value. For yeast and fungi, the USP requirement is for there to be no increase from the time of inoculation to 7, 14 and 28 days.
(§4) EP requirements are more stringent. EP 5th Edition 5.6 (5.1.3) requirements for parenteral and ophthalmic preparations has two components: Category A and Category B. Category A (EP-A) requires, for bacteria, at least 2.0 log reduction from the initial calculated count at 6 hours after inoculation, at least 3.0 log reduction at 24 hours from the previous measured value, and no recovery at 28 days. Category B (EP-B) requires, for bacteria, at least 1.0 log reduction at 24 hours from the initial calculated count, at least 3.0 log reduction at 7 days from the previous value measured and not more than 0.5 log increase at 28 days from the previous value measured (i.e., no increase). For yeast and fungi, Category A requires at least 2.0 log reduction at 7 days and no increase from the previous value measured at 28 days, and Category B requires at least 1.0 log reduction at 14 days and no increase from the previous value measured at 28 days.
(§5) Plates containing <300 CFU for bacteria or <100 CFU for yeast or mold were used during enumeration. For single challenge studies, arithmetic average count of all surviving micro-organisms in triplicate and on duplicate plates (6 values per time point) plus their diluted samples were measured and normalized as CFU/ml. The results are expressed as mean log10 CFU/ml reduction (compared to time 0). In this case, the count of surviving micro-organisms is evaluated at time 0 as the baseline and compared to incubation time of 6 hours, 24 hours, 7 days, 14 days and 28 days.

E. coli = conditions: Prev(e)nar 13 formulation, 20 to 25° C.
Source text: as §1, §2, §3, §4, §5

[2] = tested on: Pseudomonas aeruginosa (ATCC #9027); conditions: Prev(e)nar 13 formulation, 20 to 25° C.
Source text: as §1, §2, §3, §4, §5

[3] = tested on: Staphylococcus aureus (ATCC #6538); conditions: Prev(e)nar 13 formulation, single challenge, 20 to 25° C.
Source text: as §1, §2, §3, §4, §5

[4] = tested on: Aspergillus niger (ATCC #16404); conditions: Prev(e)nar 13 formulation, single challenge, 20 to 25° C.
Source text: as §1, §2, §3, §4, §5

Row | SMILES | EP (EP-B) vaccine safety requirements, C. albicans [1] | USP vaccine safety requirements, C. albicans [1] | EP (EP-B) vaccine safety requirements, E. coli (E. coli) | USP vaccine safety requirements, E. coli (E. coli) | EP (EP-B) vaccine safety requirements, P. aeruginosa [2] | USP vaccine safety requirements, P. aeruginosa [2] | EP (EP-B) vaccine safety requirements, S aureus [3] | USP vaccine safety requirements, S aureus [3] | EP (EP-B) vaccine safety requirements, A. niger [4] | USP vaccine safety requirements, A. niger [4]
1 | Cc1cccc(O)c1 [0.3% m cresol, Meta-Cresol] | Meets | Meets | Fails | Meets | Fails | Meets | Fails | Meets | Meets | Meets
2 | Oc1ccccc1 [0.25% phenol, Phenol] | Meets | Meets | Fails | Meets | Fails | Meets | Fails | Meets | Meets | Meets
